Test results published in patent publication US20190202774A1, “BIARYL COMPOUNDS AS ANTIMICROBIAL AND CHEMOTHERAPEUTIC AGENTS” (priority 2015, published 2019).
≈ marks a conversion by molar mass, not a printed value. Entries after “also recorded” stand apart in the source; their conditions may differ. Read-outs that look alike come from different tables or passages of the source.

Experiments:
[1] = tested on: human dermal fibroblasts (HDF)
Experimental: (§1) Finally, toxicity of biaryl compounds was tested against human lung airway epithelial cells (16HBE), human dermal fibroblasts, and J774.A1 murine macrophages using an ALAMARBLUE® Cell Viability Assay. Biaryl compounds, C58, acetylated C58 (C58-2), C59, C59-2, C59Na, and C59Li were incubated with cells for 24 hours and an ALAMARBLUE® Cell Viability Assay was performed to determine cell viability relative to untreated controls (FIGS. 13A-13C). Cell viability curves were analyzed using non-linear curve fit to yield the inhibitory concentration at median cell survival (LD50) for all cell lines (Table 3).
(§2) Next, the toxicity of lead candidates was tested against human lung airway epithelial cells (16HBE) and human dermal fibroblasts (HDF) using an alamarBlue® Cell Viability Assay.

[2] = tested on: human lung airway epithelial cells (16HBE)
Experimental: as §1, §2

[3] = tested on: erythrocytes from sheep blood; assay: Hemolytic activity
Experimental: Toxicity of biaryl compounds was tested against erythrocytes as well as eukaryotic epithelial, dermal, and macrophage cell lines in vitro.
Toxicity of lead antimicrobial candidates was tested against erythrocytes, as well as eukaryotic epithelial and dermal cell lines in vitro.

H2122 = assay: Lung cancer cell survival, H2122; assay type: cell-based; settings: 72 hour incubation, non-linear curve fit
Experimental: (§3) The IC50 values generated using a non-linear curve fit with lung cancer cell lines, A549, H460, H2122, and H2073 are listed in Table 10. Experiments were performed using C58, C58-2, C59, C59-2, C119, and acetylated C119 (C119-2). […] Additionally, these concentrations are clinically achievable for treatment of lung cancer and a detailed structure activity relationship experiments needs to be performed to identify promising anticancer candidates.

[4] = tested on: eukaryotic cell lines tested; assay: ALAMARBLUE Cell Viability Assay, LD50 quoted in text (cell line not given); settings: 24 hours; cell line not named in the sentence (Table 3 not given)
Experimental: as §1

MRSA strain USA300 [5] = assay: DiSC3(5) membrane permeabilization; assay type: cell-based, Staphylococcus aureus; settings: 0.1 and 0.5 μg/mL
Experimental: Biaryl compounds and their analogues have been reported to be membrane active agents (Isnansetyo and Kamei, 2003 and Kamei et al., 2003). An experiment was performed to verify the membrane permeabilization activity of biaryl compound. C58 using a fluorescent dye, 3,3′-Dipropylthiacarbocyanine iodide (DiSC3(5)). The fluorescence signal from DiSC3(5) is in a quenched state when it interacts with the hydrophobic region of the cell membrane. Upon disruption of the membrane, DiSC3(5) is released and regains its fluorescent activity, which is measured as a fluorescence signal (RFU).

H460 = assay: Lung cancer cell survival, H460; assay type: cell-based; settings: 72 hour incubation, non-linear curve fit
Experimental: as §3

[6] = tested on: R. equi strains 701+, 701−, 703, and 5331; assay: MIC/MBC broth microdilution against R. equi; assay type: cell-based, Rhodococcus equi
A549 = assay: Lung cancer cell survival, A549; assay type: cell-based; settings: 72 hour incubation, non-linear curve fit
Experimental: as §3

[7] = tested on: E. faecalis strains 49532 and 51575; assay: MIC/MBC broth microdilution against E. faecalis; assay type: cell-based, Enterococcus faecalis
[8] = tested on: 21 S. epidermidis strains; assay: MIC90/MBC90 broth microdilution against 21 S. epidermidis strains; assay type: cell-based, Staphylococcus epidermidis
From the text: We are currently in the process of evaluating the MICs and MBCs for 5-32.

38 MRSA strains [9] = assay: microbe, parasite or virus in culture; settings: Staphylococcus aureus
H2073 = assay: Lung cancer cell survival, H2073; assay type: cell-based; settings: 72 hour incubation, non-linear curve fit
Experimental: as §3

MRSA SA LL06 = assay: Growth curves (OD650, 18-h), MRSA SA LL06; assay type: cell-based, Staphylococcus aureus; settings: SA LL06, 18-h
[10] = tested on: MRSA strains SAD05 and 0632 in a biofilm; assay: MBEC High-throughput biofilm assay; assay type: cell-based, Staphylococcus aureus; settings: six-hour incubation, SAD05 and 0632
MRSA strain USA 300 = assay: Growth curves (OD650, 18-h), MRSA USA 300; assay type: cell-based, Staphylococcus aureus; settings: stationary phase USA 300, 18-h, compared with non-treated control
Experimental: The rate of bacterial growth in presence of antimicrobial candidates, C58, C59, C59Na, or 4-76, was performed using stationary phase MRSA, USA 300 and SA LL06, or S. epidermidis, M0881, and compared with SoC antimicrobial, vancomycin. In addition, these growth rates were compared with the kill kinetics described earlier (FIGS. 4 & 5). […] A reduction in bacterial growth rate, represented by a lower absorbance at OD650, can be observed with C59 and C59Na at concentrations as low as 0.125×MIC compared with non-treated control. […] However, in the kill kinetics experiments, vancomycin fails to eradicate stationary phase MRSA at concentrations up to 2×MIC. This anomaly can be explained by the different experimental conditions between the kill kinetics and growth curve experiments; bacterial samples are grown with constant shaking on an orbital shaker for a kill kinetics experiment but not for a growth curve experiment.
Finally, the antimicrobial efficacy of enantiomers of compound 4-76 were evaluated against log-phase MRSA strain USA 300, as described earlier.

[11] = tested on: MRSA strains USA300, 0606, 0608, 0634, 0641, and 0646; assay: MIC/MBC against six MRSA strains (variants of C58/C59, pH, DMSO); assay type: cell-based, Staphylococcus aureus
Experimental: Six MRSA strains, USA300, 0606, 0608, 0634, 0641, and 0646 were chosen based on their activity against biaryl compounds and vancomycin to determine structure-activity relationship of biaryl compounds. The effect of phenolic group on the activity of biaryl compounds was tested by modifying C59. First, the phenolic group was protected by acetylation to yield an acetylated C59 (C59-2) (FIG. 7B). Additional variants of C59, in the form of sodium and lithium salts were synthesized by incubation with sodium hydroxide and lithium hydroxide (FIGS. 7C and 7D). Antimicrobial activity of these deprotonated, water-soluble sodium (C59Na) and lithium (C59Li) salts, and acetylated derivative of C59 was tested against 6 MRSA strains and compared to the parent compound, C59 (FIGS. 8A-8D). Results from this comparative experiment indicate the contribution of phenolic group/phenoxide ion to the antimicrobial activity.
Further investigation into activity of these compounds under acidic pH conditions also points towards the role of phenolic group. An effective antimicrobial should be active under a wide range of pH conditions, including the physiological pH of 7.4. Localized pH in an infection is often lower than the physiological pH, and may be as low as 5.5 (Radovic-Moreno et al., 2012). Additionally, pH varies among organs (Radovic-Moreno et al., 2012). For example, pH in the bladder or on the skin is found to be between 4.5 and 8.0, or 4.0 and 5.5, respectively (Radovic-Moreno et al., 2012). […] The activity of all biaryl compounds is enhanced by at least four- to eight-fold with reduction in pH from 7.4 to 5.5.
Water soluble sodium and lithium salts of C59 (C59Na and C59Li) and their antimicrobial activity against six MRSA strains are reported above. A sodium salt of C58 (C58Na) was prepared and evaluated efficacy of this compound against these six MRSA strains. […] The poor activity of C58Na may be a result of poor stability of C58Na compared with C59Na and C59Li.

[12] = tested on: seven S. pyogenes strains; assay: MIC/MBC against panel of S. pyogenes strains; assay type: cell-based, Streptococcus pyogenes; settings: range over seven S. pyogenes strains
Experimental: The activity of compounds against Gram-positive pathogens, S. pyogenes and S. pneumoniae, identified through the preliminary screen (FIG. 15) was evaluated against a panel of these pathogens.

38 MRSA strains [13] = settings: MH broth
[14] = tested on: MRSA strains USA300 and SALL06; assay: Kill kinetics with stationary-phase MRSA; assay type: cell-based, Staphylococcus aureus; settings: stationary-phase USA300 and SALL06, up to 24 hours
MRSA strain USA300 [15] = assay: Kill kinetics with planktonic log-phase MRSA; assay type: cell-based, Staphylococcus aureus; settings: log-phase USA300, 24 hours
erythrocytes = settings: 50 μg/mL, two hour incubation; cited from earlier work
[16] = Rhodococcus (subgen. Prescottella) equi, strain 701+
[17] = Rhodococcus (subgen. Prescottella) equi, strain 701−
[18] = Rhodococcus (subgen. Prescottella) equi, strain 703
[19] = Rhodococcus (subgen. Prescottella) equi, strain 5331
[20] = 24-h incubation, non-linear curve fit

Molecule	onset of hemolysis ([3]; sheep, 1 h) [µg/mL]	H2122 LD50 (H2122) [µM]	LD50 (inhibitory concentration at median cell survival) [4] [µg/mL]	H460 LD50 (H460) [µM]	A549 LD50 (A549) [µM]	MBC ([7]; strain 51575) [µg/mL]	MIC ([7]; strain 51575) [µg/mL]	H2073 LD50 (H2073) [µM]	lowest concentration with reduction in bacterial growth rate (MRSA SA LL06) [×MIC]	16HBE LD50 [2, 20] [µg/mL]	lowest concentration with reduction in bacterial growth rate (lower OD650) (MRSA strain USA 300) [×MIC]	MBC ([6]; strain 701+) [µg/mL]	MIC ([6]; strain 701+) [µg/mL]	MBC ([6]; strain 701−) [µg/mL]	MIC ([6]; strain 701−) [µg/mL]	MBC ([6]; strain 703) [µg/mL]	MIC ([6]; strain 703) [µg/mL]	MBC ([6]; strain 5331) [µg/mL]	MIC ([6]; strain 5331) [µg/mL]	MBC ([7]; strain 49532) [µg/mL]	also measured
COc1c(C)cc(O)c(-c2c(O)ccc3ccccc23)c1C																					melting point: 190 to 191 °C
C[C@@H]1[C@H](O)[C@@H](C)/C=C/C=C/C=C/C=C/C=C/C=C/C=C/[C@H](O[C@@H]2O[C@H](C)[C@@H](O)[C@H](N)[C@@H]2O)C[C@@H]2O[C@](O)(C[C@@H](O)C[C@@H](O)[C@H](O)CC[C@@H](O)C[C@@H](O)CC(=O)O[C@H]1C)C[C@H](O)[C@H]2C(=O)O [Amphotericin B, reference compound]	2																				Fibroblasts LD50 ([1]; human, 24 h): 2.2 µg/mL; 16HBE LD50 ([2]; human, 24 h): 12.6 µg/mL; concentration resulting in 100% hemolysis ([3]; sheep, 1 h): 8000 ng/mL
Oc1c(Br)cc(Br)cc1-c1cc(Br)cc(Br)c1O [C58, bromophene]	> 64	98	60	42	120	12 (≈ 23.9 µM)	6 (≈ 12 µM)	32	0.125												membrane disruption (DiSC3(5) fluorescence) (MRSA strain USA300 [5]): positive membrane disruption; onset of hemolysis ([3]; sheep, 18 h): 16 to 20 µg/mL; MBC [6, 16]: 4 µg/mL (≈ 7.97 µM); MIC [6, 16]: 1 µg/mL (≈ 1.99 µM); MBC [6, 17]: 8 µg/mL (≈ 15.9 µM); MIC [6, 17]: 1 µg/mL (≈ 1.99 µM); MBC [6, 18]: 8 µg/mL (≈ 15.9 µM); MIC [6, 18]: 0.5 µg/mL (≈ 0.996 µM); MBC [6, 19]: 4 µg/mL (≈ 7.97 µM); MIC [6, 19]: 1 µg/mL (≈ 1.99 µM); MBC ([7]; Enterococcus faecalis): 12 µg/mL (≈ 23.9 µM); MIC ([7]; Enterococcus faecalis): 6 µg/mL (≈ 12 µM); MIC90 ([8]; Staphylococcus epidermidis): 2 µg/mL (≈ 3.99 µM); MBC ([8]; Staphylococcus epidermidis, read-out: MBC90): 8 µg/mL (≈ 15.9 µM); MIC90 (38 MRSA strains [9]): 2 µg/mL (≈ 3.99 µM); MBC (38 MRSA strains [9]; read-out: MBC90): 4 µg/mL (≈ 7.97 µM); concentration that completely eradicates bacteria in a biofilm [10]: 16 µg/mL
[Na+].[Na+].[O-]c1c(Cl)cc(Cl)cc1-c1cc(Cl)cc(Cl)c1[O-] [C59Na]						24	12			30	0.125	16	2	32	8	8	1	8	2	24	MIC ([7]; strain 49532): 12 µg/mL; activity in the absence of DMSO versus with 2.5% DMSO [11]: at least comparable activity; antimicrobial activity (MIC and MBC) compared to the parent compound [11]: enhanced activity; also recorded: superior activity over C59
Oc1c(Cl)cc(Cl)cc1-c1cc(Cl)cc(Cl)c1O [C59]		91	40	37	123	16 (≈ 49.4 µM)	8 (≈ 24.7 µM)	43	0.125		0.125	4 (≈ 12.3 µM)	2 (≈ 6.17 µM)	16 (≈ 49.4 µM)	2 (≈ 6.17 µM)	8 (≈ 24.7 µM)	2 (≈ 6.17 µM)	4 (≈ 12.3 µM)	2 (≈ 6.17 µM)	16 (≈ 49.4 µM)	MBCs [12]: 12 to 24 µg/mL; MICs [12]: 2 to 12 µg/mL; MBC90 (38 MRSA strains [13]): 6 µg/mL (≈ 18.5 µM); MIC90 (38 MRSA strains [13]): 2 µg/mL (≈ 6.17 µM); eradication of stationary-phase bacteria [14]: continues to eradicate bacteria; concentration of complete killing (MRSA strain USA300 [15]): 8 µg/mL; dose response of bacterial eradication (MRSA strain USA300 [15]): dose-dependent manner; lowest concentration with reduction in bacterial burden (MRSA strain USA300 [15]; compared with untreated bacteria): 0.5 µg/mL; MIC ([7]; strain 49532): 8 µg/mL (≈ 24.7 µM); MBC90 ([8]; 21 S. epidermidis strains): 12 µg/mL (≈ 37 µM); MIC90 ([8]; 21 S. epidermidis strains): 4 µg/mL (≈ 12.3 µM)
Gramicidin D [reference compound]										20.5											Fibroblasts LD50 [1, 20]: 3.9 µg/mL; hemolysis (erythrocytes): 60%; concentration resulting in 100% hemolysis ([3]; 1-h incubation): 48000 ng/mL; onset of hemolysis ([3]; 1-h incubation): 2 µg/mL
